Experimental data reported in patent publication EP4707280A1, “1,4-CINEOLE DERIVATIVE AND INTERMEDIATE THEREOF, HERBICIDE CONTAINING SAID DERIVATIVE AS ACTIVE INGREDIENT, METHOD FOR USING HERBICIDE, AND METHOD FOR PREPARING AGROCHEMICAL COMPOSITION” (HOKKO CHEMICAL INDUSTRY CO., LTD., priority 2023, dated 2024).

What was measured:
Assay type in all cases: in vivo
Scirpus juncoides [1] = assay: Test Example 2: herbicidal effect test by application during growth period of paddy rice; conditions: Schoenoplectiella juncoides; 120 g per 10 ares; applied seven days after sowing, flooded pots; 14 days after application; read-out: weed inhibition rate
Summary of the method: (§1)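 Paddy soil in Wagner pots was puddled with N:P:K 16:16:16 fertilizer, sown with 30 weed seeds per species at 0–1 cm and flooded to about 3 cm. Seven days after sowing, a water-diluted emulsifiable concentrate was dropped onto the water at 120 g active ingredient per 10 ares. Weed inhibition (%) was scored at 14 days, in duplicate.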

[2] = system: Echinochloa crus-galli var. formosensis; assay: as above; conditions: Echinochloa crus-galli; 120 g per 10 ares; applied seven days after sowing, flooded pots; 14 days after application; read-out: weed inhibition rate
Summary of the method: as §1

Echinochloa crus-galli [3] = assay: Test Example 4: herbicidal effect test by stem and leaf treatment in upland field; conditions: Echinochloa crus-galli; 120 g per 10 ares; sprayed seven days after sowing, upland soil; 14 days after application; read-out: weed inhibition rate
[4] = system: Echinochloa crus-galli var. formosensis; assay: Test Example 5: herbicidal effect test by soil application in paddy rice (low dose); conditions: Echinochloa crus-galli, soil, 336 h; 7.5 g per 10 ares; applied immediately after sowing, flooded pots; 14 days after application; read-out: weed inhibition rate
Summary of the method: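 Paddy soil in Wagner pots was fertilized (N:P:K 16:16:16), puddled, sown with 30 seeds per weed species at 0–1 cm, then flooded to ~3 cm in a glass greenhouse. Emulsifiable concentrate diluted in water was dropper-applied into floodwater immediately, at 7.5 g active ingredient per 10 ares; duplicates, scored at 14 days.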

Echinochloa crus-galli [5] = assay: Test Example 3: herbicidal effect test by soil application in upland field; conditions: Echinochloa crus-galli, 120 g per 10 ares, sprayed one day after sowing, 14 days after application, read-out: weed inhibition rate
Summary of the method: (§2)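 Weed inhibition (%) was assessed 14 days after treatment, in duplicate per concentration group. Seeds had been mixed into the upper 1 cm of upland alluvial loam, and the soil surface was sprayed one day later with the diluted emulsifiable concentrate at 120 g active ingredient per 10 ares.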

Digitaria ciliaris [6] = assay: as above; conditions: Digitaria ciliaris, 120 g per 10 ares, sprayed one day after sowing, 14 days after application, read-out: weed inhibition rate
Summary of the method: as §2

Scirpus juncoides [7] = assay: Test Example 1: herbicidal effect test by soil application in paddy rice; conditions: Schoenoplectiella juncoides, soil, 336 h; 120 g active ingredient per 10 ares; applied immediately after sowing, flooded pots; 14 days after application; read-out: weed inhibition rate
Summary of the method: (§3)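 Treatment: 120 g active ingredient per 10 ares as a water-diluted emulsifiable concentrate, dropped onto flooded pots immediately after sowing. Thirty seeds per species went 0–1 cm into puddled paddy soil with 16:16:16 fertilizer, with ~3 cm flooding maintained in a glass greenhouse.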

[8] = system: Echinochloa crus-galli var. formosensis; assay: as above; conditions: Echinochloa crus-galli, soil, 336 h; 120 g active ingredient per 10 ares; applied immediately after sowing, flooded pots; 14 days after application; read-out: weed inhibition rate
Summary of the method: as §3

Echinochloa crus-galli [9] = assay: Test Example 8: herbicidal effect test by stem and leaf treatment in upland field (low dose); conditions: Echinochloa crus-galli; 7.5 g per 10 ares; sprayed seven days after sowing, upland soil; 14 days after application; read-out: weed inhibition rate
Digitaria ciliaris [10] = assay: as above; conditions: Digitaria ciliaris; 7.5 g per 10 ares; sprayed seven days after sowing, upland soil; 14 days after application; read-out: weed inhibition rate
Digitaria ciliaris [11] = assay: Test Example 4: herbicidal effect test by stem and leaf treatment in upland field; conditions: Digitaria ciliaris; 120 g per 10 ares; sprayed seven days after sowing, upland soil; 14 days after application; read-out: weed inhibition rate
Echinochloa crus-galli [12] = assay: Test Example 7: herbicidal effect test by soil application in upland field (low dose); conditions: Echinochloa crus-galli, 7.5 g per 10 ares, sprayed one day after sowing, 14 days after application, read-out: weed inhibition rate
Summary of the method: (§4)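 Pre-emergence soil application: upland alluvial loam pots sown with weed seeds mixed into the top 1 cm; one day after sowing, a water-diluted emulsifiable concentrate was sprayed on the soil at 100 L per 10 a, delivering 7.5 g active ingredient per 10 a. Weed inhibition rate (%) scored 14 days after application, duplicate pots.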

Digitaria ciliaris [13] = assay: as above; conditions: Digitaria ciliaris, 7.5 g per 10 ares, sprayed one day after sowing, 14 days after application, read-out: weed inhibition rate
Summary of the method: as §4

[14] = system: Echinochloa crus-galli var. formosensis; assay: Test Example 6: herbicidal effect test by application during growth period of paddy rice (low dose); conditions: Echinochloa crus-galli; 7.5 g per 10 ares; applied seven days after sowing, flooded pots; 14 days after application; read-out: weed inhibition rate
Summary of the method: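 Puddled, fertilised paddy soil was sown with 30 seeds per species and flooded to about 3 cm. After 7 days in a glass greenhouse, the diluted emulsifiable concentrate went into the water by dropper at 7.5 g/10 a. Effect scored at 14 days.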

CC(C)[C@]12C[C@@H](OCc3c(F)cccc3Br)[C@](C)(C[C@@H]1Cl)O2 [1-1613, (1R,2S,4S,5R)-5-[(2-bromo-6-fluoro-phenyl)methoxy]-2-chloro-1-isopropyl-4-methyl-7-oxabicyclo[2.2.1]heptane]
≥ 80%: inhibition at 1200 g/ha (Scirpus juncoides [1]) | inhibition at 1200 g/ha [2] | inhibition at 1200 g/ha (Echinochloa crus-galli [3]) | inhibition at 75 g/ha [4] | inhibition at 1200 g/ha (Echinochloa crus-galli [5]) | inhibition at 1200 g/ha (Digitaria ciliaris [6]) | pest or weed control at 1200 g/ha (Scirpus juncoides [7]) | pest or weed control at 1200 g/ha [8] | inhibition at 75 g/ha (Echinochloa crus-galli [9]) | inhibition at 75 g/ha (Digitaria ciliaris [10]) | inhibition at 1200 g/ha (Digitaria ciliaris [11]) | inhibition at 75 g/ha (Echinochloa crus-galli [12]) | inhibition at 75 g/ha (Digitaria ciliaris [13]) | inhibition at 75 g/ha [14]

CC(C)[C@]12C[C@@H](OCc3c(F)cccc3Br)[C@](C)(C[C@@H]1I)O2 [1-1614, (1R,2S,4S,5R)-5-[(2-bromo-6-fluoro-phenyl)methoxy]-2-iodo-1-isopropyl-4-methyl-7-oxabicyclo[2.2.1]heptane]
≥ 80%: inhibition at 1200 g/ha (Scirpus juncoides [1]) | inhibition at 1200 g/ha [2] | inhibition at 1200 g/ha (Echinochloa crus-galli [3]) | inhibition at 75 g/ha [4] | inhibition at 1200 g/ha (Echinochloa crus-galli [5]) | inhibition at 1200 g/ha (Digitaria ciliaris [6]) | pest or weed control at 1200 g/ha (Scirpus juncoides [7]) | pest or weed control at 1200 g/ha [8] | inhibition at 75 g/ha (Echinochloa crus-galli [9]) | inhibition at 75 g/ha (Digitaria ciliaris [10]) | inhibition at 1200 g/ha (Digitaria ciliaris [11]) | inhibition at 75 g/ha (Echinochloa crus-galli [12]) | inhibition at 75 g/ha (Digitaria ciliaris [13]) | inhibition at 75 g/ha [14]

CCNC(=O)O[C@H]1C[C@]2(C)O[C@@]1(C(C)C)C[C@H]2OCc1ccccc1F [1-1615, [(1R,2S,4S,5R)-5-[(2-fluorophenyl)methoxy]-1-isopropyl-4-methyl-7-oxabicyclo[2.2.1]heptan-2-yl] N-ethylcarbamate]
≥ 80%: inhibition at 1200 g/ha (Scirpus juncoides [1]) | inhibition at 1200 g/ha [2] | inhibition at 1200 g/ha (Echinochloa crus-galli [3]) | inhibition at 75 g/ha [4] | inhibition at 1200 g/ha (Echinochloa crus-galli [5]) | inhibition at 1200 g/ha (Digitaria ciliaris [6]) | pest or weed control at 1200 g/ha (Scirpus juncoides [7]) | pest or weed control at 1200 g/ha [8] | inhibition at 75 g/ha (Echinochloa crus-galli [9]) | inhibition at 75 g/ha (Digitaria ciliaris [10]) | inhibition at 1200 g/ha (Digitaria ciliaris [11]) | inhibition at 75 g/ha (Echinochloa crus-galli [12]) | inhibition at 75 g/ha (Digitaria ciliaris [13]) | inhibition at 75 g/ha [14]

CC(C)=CCO[C@@H]1C[C@@]2(C(C)C)C=C[C@]1(C)O2 [3-693, (1R,4S,5R)-1-isopropyl-4-methyl-5-(3-methylbut-2-enoxy)-7-oxabicyclo[2.2.1]hept-2-ene]
≥ 80%: inhibition at 1200 g/ha (Scirpus juncoides [1]) | inhibition at 1200 g/ha [2] | inhibition at 1200 g/ha (Echinochloa crus-galli [3]) | inhibition at 75 g/ha [4] | inhibition at 1200 g/ha (Echinochloa crus-galli [5]) | inhibition at 1200 g/ha (Digitaria ciliaris [6]) | pest or weed control at 1200 g/ha (Scirpus juncoides [7]) | pest or weed control at 1200 g/ha [8] | inhibition at 75 g/ha (Echinochloa crus-galli [9]) | inhibition at 75 g/ha (Digitaria ciliaris [10]) | inhibition at 1200 g/ha (Digitaria ciliaris [11]) | inhibition at 75 g/ha (Echinochloa crus-galli [12]) | inhibition at 75 g/ha (Digitaria ciliaris [13]) | inhibition at 75 g/ha [14]

CC(C)[C@]12C=C[C@](C)(O1)[C@H](OCC1CCCCC1)C2 [3-697, (1R,4S,5R)-5-(cyclohexylmethoxy)-1-isopropyl-4-methyl-7-oxabicyclo[2.2.1]hept-2-ene]
≥ 80%: inhibition at 1200 g/ha (Scirpus juncoides [1]) | inhibition at 1200 g/ha [2] | inhibition at 1200 g/ha (Echinochloa crus-galli [3]) | inhibition at 75 g/ha [4] | inhibition at 1200 g/ha (Echinochloa crus-galli [5]) | inhibition at 1200 g/ha (Digitaria ciliaris [6]) | pest or weed control at 1200 g/ha (Scirpus juncoides [7]) | pest or weed control at 1200 g/ha [8] | inhibition at 75 g/ha (Echinochloa crus-galli [9]) | inhibition at 75 g/ha (Digitaria ciliaris [10]) | inhibition at 1200 g/ha (Digitaria ciliaris [11]) | inhibition at 75 g/ha (Echinochloa crus-galli [12]) | inhibition at 75 g/ha (Digitaria ciliaris [13]) | inhibition at 75 g/ha [14]
